Among the data in patent US20240116947A1, “PYRIDO OXAZINE DERIVATIVES AS ALK5 INHIBITORS” (CHIESI FARMACEUTICI S.P.A., priority 2020, published 2024) are IC50 values, retold here.

Molecules are shown by their SMILES. Where two headings read alike, the source gives them in different places. Where only a bound is given, the exact number is not on record here.

The experiment addresses human ALK5 (Homo sapiens (Human), UniProt P36897). The experiment can be described thus: ADP-GLO Kinases assay, inhibition of ALK5 enzymatic activity. Format: biochemical. The protocol: The enzymatic activity of compounds of the present invention was monitored measuring the formation of ADP using the ADP-GLO Kinases assay. Following the incubation of the purified enzyme, a substrate and ATP, the produced ADP was converted into ATP, which in turn was converted into light by Ultra-Glo Luciferase. The luminescent signal positively correlated with ADP amount and kinase activity. Briefly, the kinase reaction was performed by incubating 2.6 nM of the purified, commercially available human ALK5 (recombinant TGF β1 N-term GST-tagged, 80-end), a final concentration of TGFβ1 peptide 94.5 μM (Promega, T36-58) and ultra-pure ATP (Promega V915B). […] All reactions/incubations were performed at 25° C. Compound and ALK5 kinase were mixed and incubated for 15 mins. Reactions were initiated by addition of ATP at a final concentration in the assay of 0.83 μM. After an incubation of 150 min, the reaction was stopped, and ADP production detected with ADP-Glo kit according to manufacturer's indications. The assay was performed in 384-well format and was validated using a selection of reference compounds that was tested in 11 point concentration-response curve.

[1] abbreviates: Table 4, potency bins, purified recombinant human ALK5, ADP-Glo, 25° C., read-out: ALK5 IC50.

human ALK5, sequence (P36897 80-503 limits assumed): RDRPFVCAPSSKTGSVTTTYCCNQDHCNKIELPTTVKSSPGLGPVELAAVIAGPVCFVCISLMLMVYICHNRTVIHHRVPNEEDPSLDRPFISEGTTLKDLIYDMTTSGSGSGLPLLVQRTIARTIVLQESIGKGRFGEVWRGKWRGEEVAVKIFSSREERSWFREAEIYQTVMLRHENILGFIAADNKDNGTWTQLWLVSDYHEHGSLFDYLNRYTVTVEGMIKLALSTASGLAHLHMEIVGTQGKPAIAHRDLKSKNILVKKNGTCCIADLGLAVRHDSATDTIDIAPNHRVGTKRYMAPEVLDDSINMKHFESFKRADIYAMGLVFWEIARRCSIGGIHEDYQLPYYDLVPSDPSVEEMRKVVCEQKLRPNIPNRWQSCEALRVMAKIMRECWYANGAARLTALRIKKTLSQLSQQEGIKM

Take `CN1CC2(C1)CN(CC(=O)Nc1cc(N3CCOc4cnc(-c5cc(Cl)ccc5F)cc43)ccn1)CCO2` [Example 54, N-{4-[7-(5-chloro-2-fluorophenyl)-1H,2H,3H-pyrido[3,4-b][1,4]oxazin-1-yl]pyridin-2-yl}-2-{2-methyl-5-oxa-2,8-diazaspiro[3.5]nonan-8-yl}acetamide]: under setting [1], the IC50 is less than 1 nM.
Take `CN1CCN(CCNC(=O)Nc2cc(N3CCOc4cnc(-c5cc(Cl)ccc5F)cc43)ccn2)CC1` [Example 55, 1-(4-(7-(5-chloro-2-fluorophenyl)-2,3-dihydro-1H-pyrido[3,4-b][1,4]oxazin-1-yl)pyridin-2-yl)-3-(2-(4-methylpiperazin-1-yl)ethyl)urea]: the IC50 under setting [1] is less than 1 nM.
The same measure, in the same setting: for `CN1CCN(CCC(=O)Nc2cc(N3CCOc4c3cc(-c3cc(Cl)ccc3F)nc4C(F)(F)F)ccn2)CC1` [Example 56] the value was 5 to 10 nM.
In the case of `Fc1ccc(Cl)cc1-c1cc2c(cn1)OCCN2c1ccn[nH]1` [Example C1, 5-[7-(5-chloro-2-fluorophenyl)-1H,2H,3H-pyrido[3,4-b][1,4]oxazin-1-yl]-1H-pyrazole, reference compound], the IC50 is 9200 nM (Table 5, comparative examples, same in vitro assay, read-out: ALK5 IC50) and more than 9000 nM (statements in running text, read-out: potency (IC50) with respect to inhibitory activity on ALK5).

What is called IC50 is the point on the concentration scale where inhibition reaches its midpoint.
